Experiment [1] concerns Mouse collagen-induced arthritis. The experiment can be described thus: Therapeutic mouse collagen-induced arthritis (mCIA). The experiment is classed as in vivo. The source says: Mouse Collagen-induced arthritis is a commonly used chronic, preclinical model of rheumatoid arthritis in which joint swelling and bone destruction occur following immunization with type II collagen. Reduction of disease incidence and severity has been shown previously to be predictive of disease-modification and signs and symptoms mitigation, respectively, in a clinical setting.
In the therapeutic mCIA model, induction of disease incidence and severity was synchronized via LPS stimulation. Male DBA/J mice were immunized with 100 ug of bovine type II collagen (bCII) on day 0. All mice received an intraperitoneal injection of 20 μg of LPS on day 28 and disease was allowed to develop through day 34. At day 34, all mice had disease (incidence=100%) with an average severity score of seven. Dosing of compounds was initiated in the therapeutic mode on day 34 and continued through day 49. Different treatments were compared by measuring the decrease in incidence (i.e., resolution of disease) and the decrease in severity of paw swelling over time.
ED50 and ED80 values are obtained for the various parameters using four-parameter logistic fits of data. For each experiment/dose group, outliers are detected by calculating the number of standard deviations each mouse's value was from the mean of their group and then dividing by the standard deviation of the group. The means and standard deviations used in this calculation omitted the value being examined so that, if it were an outlier, it would have no influence. If the value being examined is more than 2.5 standard deviations from the mean, it was not used in the rest of the calculations.
Percent inhibition values are then calculated for each animal using the means of the vehicle and 10 mpk prednisone control groups. The individual mouse percent inhibition values are then fit to a four-parameter logistic model using the area under curve mean for each group. Since all four parameters are estimated and the lower plateau is not fixed at 0% and the upper plateau was not fixed at 100%, the ED50 and ED80 values are calculated by using an inverse calibration formula for a response equal to 50% or 80%. The designation “nd” means not determined.

The subject of another experiment is IFNγ. The experiment can be described thus: LPS-induced human whole blood, IFNγ release. The experiment is classed as cell-based. On the procedure: Venous blood from human donors was collected as 10 ml aliquots in tubes containing sodium heparin (BD Vacutainer from Becton Dickinson and Company, Franklin Lakes, N.Y.). Blood was added to sterile polystyrene round bottom 96-well tissue culture plates (Corning Costar) at 180 Blood was placed in a humidified 37 C incubator with 5% CO2 while compounds were prepared (nearly 60 minutes).
Compounds were prepared from 10 mM stock solutions in dimethylsulfoxide (DMSO, Sigma-Aldrich). Stock compound was diluted in DMSO to give appropriate starting concentration then diluted serially 1/3 in DMSO (i.e. 15 μl compound+30 μl DMSO), followed by diluting each serial dilution 1/167 into vehicle solution (2% DMSO in phosphate buffered saline (Dulbecco's Phosphate Buffered Saline without calcium chloride without magnesium chloride, Invitrogen Corporation, Carlsbad Calif.)). Compound or vehicle was added to blood in 10 μl aliquots as triplicates, omitting the outside wells to minimize possible edge effects. The final highest concentration of each compound in the assay ranged from 3 to 0.3 μM. Final DMSO concentration in the assay was 0.1%. The plate containing the samples was gently vortexed to mix and replaced in the incubator. LPS stock (E. coli serotype 0111:B4, Sigma-Aldrich), stored in aliquots of 100 μg/ml in RPMI at −20° C., was diluted […] in RPMI to make a working stock solution. After 60 minutes of incubation, 10 μl of the prepared LPS working stock was added to the blood to a final concentration of 100 ng/ml. Wells to be used as negative control received RPMI media with no LPS. The plate was again gently vortexed and the plates incubated overnight for 22 hours. Following incubation, the blood was centrifuged at 1500×g for 5 minutes and the plasma removed to either freeze at −20° C. or assay for cytokine release.
IL-1β, IFNγ and TNFα protein levels were measured using Meso Scale assay kits (Meso Scale Discovery, Gaithersburg, Md., U.S.A.). Reagents were allowed to come to room temperature. Meso Scale plates were blocked with 150 μl of Meso Scale Block B diluent, gently shaking at room temperature for 60 minutes. Plates were washed 3× with wash buffer (PBS, Invitrogen Corporation, with 0.05% Tween-20, Sigma-Aldrich). Calibrators for standard curves were prepared in human plasma/serum assay diluent as a 1/5 serial dilution to achieve final concentrations ranging from 50000 pg/ml to 3.2 pg/ml. Samples were added at 10 to 20 μl/well and calibrators were added at 20 μl/well then incubated at room temperature with gentle shaking for 2 hours. Plates were again washed 3× with wash buffer. Detection antibody was diluted in human plasma/serum antibody diluent to 1 μg/ml and added to the plate at 20 μl/well. Plates were incubated as before for 2 hours and washed again. Read Buffer T (4×) was diluted 1:1 with mqH20 to 2× concentration and 150 μl added to each well. Plates were read on the SECTOR Imager 6000 (Meso Scale Discovery) to generate raw signal values.
Individual sample signal values were compared to positive and negative controls (vehicle treated blood with LPS and vehicle treated blood without LPS, respectively) to generate % inhibition. Triplicate values were averaged for each donor. The values for three or four donors were averaged and graphed using 4-parameter fit curves in the LabStats plug-in for the Microsoft Excel application.

In another experiment the test system is LPS-induced TNFα. Kind of experiment: 28-day mouse side-effect model, LPS-induced serum TNFα suppression. The note with it: oral gavage 28 days, LPS challenge. In kind it is in vivo.

Regarding `Cc1ncccc1NC(=O)c1ccc2c(c1)C(=O)C[C@@H]1C[C@@](O)(c3ccccc3)[C@](C)(O)C[C@@]21Cc1ccccc1` [Example 1, (4bR,6R,7R,8aS)-4b-benzyl-6,7-dihydroxy-6-methyl-N-(2-methylpyridin-3-yl)-10-oxo-7-phenyl-4b,5,6,7,8,8a,9,10-octahydrophenanthrene-2-carboxamide], the ED50 is 0.3 mg/kg in experiment [1] (816 h, dosing day 34 to 49, read-out: Therapeutic mCIA (ED50 dose)) and 0.029 mg/kg in the experiment with LPS-induced TNFα (672 h, read-out: TNFα Suppression (ED50 dose)). Further, the “Therapeutic mCIA (ED80 dose)” value in experiment [1] (dosing day 34 to 49) stood at 1.61. Besides, the inhibition at 0.000137174 µM in the experiment with IFNγ (Homo sapiens, 0.137174 nM, mean of donors) is -3.93%. Moreover, in the experiment on IFNγ (Homo sapiens, 0.411523 nM, mean of donors), the inhibition at 0.000411523 µM is 15.6%. Further, the inhibition at 0.00123457 µM in the experiment with IFNγ (Homo sapiens, 1.234568 nM, mean of donors) came to 18.4%. Also, in the experiment on IFNγ (Homo sapiens, 3.703704 nM, mean of donors), the inhibition at 0.0037037 µM was 26.9%. Further, the inhibition at 0.0111111 µM in the experiment on IFNγ (Homo sapiens, 11.11111 nM, mean of donors) worked out at 51%. Further, in the experiment on IFNγ (Homo sapiens, 33.33333 nM, mean of donors), the inhibition at 0.0333333 µM came out at 66.2%. Further, the inhibition at 0.1 µM in the experiment with IFNγ (Homo sapiens, 100 nM, mean of donors) is 72.5%. The inhibition at 0.3 µM in the experiment on IFNγ (Homo sapiens, 300 nM, mean of donors) came out at 72.9%. Moreover, the “level of inhibition of IFN” value in the experiment with IFNγ (ex vivo LPS-stimulated human whole blood, extent of inhibition, concentration not given) is listed as 73%. For the same compound, the “TNFα Suppression (ED80 dose)” value in the experiment on LPS-induced TNFα was 0.11.
